Bounds are passed on as bounds.

The target in data set [1] is T1, Recombinant human PI3Kγ (full length human PI3K p110γ) (Homo sapiens, UniProt P48736).
T1 construct: full length human PI3K p110γ fused with a His6-tag at the C-terminus; His6 (C); purchased ALEXIS BIOCHEMICALS #201-055-C010; host or cells: S. frugiperda 9 insect cells
The data set can be described thus: Kinase assay of PI3Kγ (solid-phase lipid kinase assay). The class given is biochemical. Particulars: Table 1, isozyme not given; read-out: in vitro. The text has this: [Determination of IC50 Values of Compounds in Kinase Assay of PI3Kγ]
Chemicals and Assay Materials
LABORATORIES (Toronto, Canada). Recombinant human PI3Kγ (full length human PI3K p110γ fused with a His6-tag at the C-terminus expressed in S. frugiperda 9 insect cells) was obtained from ALEXIS BIOCHEMICALS (#201-055-C010; San Diego, Calif.). […] BIOTECH (Buckinghamshire, UK) and ROCHE DIAGNOSTICS (Mannheim, Germany), respectively. Scintillation cocktails and MicroScint PS™ were purchased from PACKARD (Meriden, Conn.). Maxisorp™ plates were purchased from NALGE NUNC INTERNATIONAL K.K. (Tokyo, Japan). All other chemicals not further specified were from WAKO PURE CHEMICALS (Osaka, Japan).
Solid-Phase Lipid Kinase Assay
The plates were subsequently air-dried by incubation for at least 2 hours in a fume hood. The reaction was set up by mixing 25 μl/well of assay buffer 2× (100 mM MOPSO/NaOH, 0.2 M NaCl, pH 7.0, 8 mM MgCl2, 2 mg/ml BSA (fatty acid-free)) and 50 ng/well PI3Kγ in the lipid pre-coated plate and 10× test compounds were added in 2% DMSO. The reaction was started by adding 20 μl/well of ATP mix (final 10 μM ATP; 0.05 μCi/well [γ^33P]ATP). After incubation at RT for 2 hours, the reaction was terminated by adding 50 μl/well stop solution (50 mM EDTA, pH 8.0). The plate was then washed twice with Tris-buffered saline (TBS, pH 7.4). MicroScint PS™ (PACKARD) scintillation mix was added at 100 μl/well, and radioactivity was counted by using a TopCount™ (PACKARD) scintillation counter.
The inhibition percent at each concentration of compound was calculated, and IC50 values were determined from the inhibition of curve.

T1 sequence (P48736 whole entry, the tested form may be a part): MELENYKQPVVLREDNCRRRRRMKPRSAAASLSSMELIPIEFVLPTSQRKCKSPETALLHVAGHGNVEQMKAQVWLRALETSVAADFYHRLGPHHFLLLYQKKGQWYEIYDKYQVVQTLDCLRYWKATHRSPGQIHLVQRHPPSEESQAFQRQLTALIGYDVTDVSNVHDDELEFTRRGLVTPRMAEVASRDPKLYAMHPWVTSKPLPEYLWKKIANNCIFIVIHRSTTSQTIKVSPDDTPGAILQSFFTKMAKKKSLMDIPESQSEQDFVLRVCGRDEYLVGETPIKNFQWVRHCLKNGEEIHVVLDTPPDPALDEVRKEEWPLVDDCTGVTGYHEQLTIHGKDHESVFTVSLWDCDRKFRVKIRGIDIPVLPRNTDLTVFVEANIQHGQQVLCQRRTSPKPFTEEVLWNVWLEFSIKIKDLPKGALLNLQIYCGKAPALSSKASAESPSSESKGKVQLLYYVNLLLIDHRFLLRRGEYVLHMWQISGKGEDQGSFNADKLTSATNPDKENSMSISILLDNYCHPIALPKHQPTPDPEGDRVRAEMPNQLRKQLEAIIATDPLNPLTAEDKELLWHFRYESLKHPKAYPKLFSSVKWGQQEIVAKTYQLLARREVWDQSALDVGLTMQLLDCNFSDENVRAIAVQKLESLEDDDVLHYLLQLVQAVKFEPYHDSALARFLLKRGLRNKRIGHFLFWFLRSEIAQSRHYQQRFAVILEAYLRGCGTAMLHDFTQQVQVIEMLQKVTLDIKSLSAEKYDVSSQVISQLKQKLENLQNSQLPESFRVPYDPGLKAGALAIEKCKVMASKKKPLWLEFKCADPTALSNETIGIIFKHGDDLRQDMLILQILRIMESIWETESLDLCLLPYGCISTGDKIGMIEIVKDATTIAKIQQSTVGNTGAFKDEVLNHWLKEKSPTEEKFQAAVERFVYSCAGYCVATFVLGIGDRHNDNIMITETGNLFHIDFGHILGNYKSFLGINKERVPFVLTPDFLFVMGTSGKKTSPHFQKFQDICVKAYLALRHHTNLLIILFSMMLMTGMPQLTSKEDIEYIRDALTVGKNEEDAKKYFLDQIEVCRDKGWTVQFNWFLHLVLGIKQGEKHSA

In turn, `CNc1ccc(/C(O)=C/C2=Nc3cc(OC)c(OC)cc3C3=NCCN23)cn1` [Example 1-52] came in with a melting point of 321 to 325 °C. Besides, the IC50 in data set [1] lay in the range of 100 to 500 nM.

Compound `COc1cc2c(cc1OC)C1=NCCN1C(/C=C(\O)c1ccc(NCCO)nc1)=N2` [Example 1-54] came in with a melting point of 207 °C. Moreover, the IC50 in data set [1] lay within 100 to 500 nM.

As for `COc1cc2c(cc1OC)C1=NCCN1C(/C=C(\O)c1ccc(Cl)nc1)=N2` [Example 1-55], the melting point was determined as 283 °C. Also, the IC50 in data set [1] lay in the range of 100 to 500 nM.

Consider `COc1cc2c(cc1OC)C1=NCCN1C(/C=C(\O)c1ccc3[nH]cnc3c1)=N2.Cl` [Example 1-57], for which the melting point was 240 °C (dec.). In addition, the IC50 in data set [1] is below 100 nM.

Turning to `COc1cc2c(cc1OC)C1=NCCN1C(/C=C(\O)c1cccs1)=N2` [Example 1-58], the melting point is 250 °C. Moreover, in data set [1], the IC50 is 100 to 500 nM.

Take `COc1cc2c(cc1OC)C1=NCCN1C(/C=C(\O)c1sc(C)nc1C)=N2` [Example 1-60]: the melting point worked out at 292 °C. In data set [1], the IC50 was below 100 nM.

`COc1cc2c(c(OC)c1C)N=C(/C=C(\O)c1cccnc1)N1CCN=C21` [Example 1-62]: the melting point stood at 278 °C. Besides, the IC50 in data set [1] is below 100 nM.

Compound `COc1cc2c(c(OC)c1C)N=C(/C=C(\O)c1ccc(NC(C)=O)nc1)N1CCN=C21` [Example 1-64] showed a melting point above 285 °C. Also, the IC50 in data set [1] is below 100 nM.

In the case of `COc1cc2c(c(OC)c1C)N=C(/C=C(\O)c1ccc3[nH]cnc3c1)N1CCN=C21` [Example 1-66], the melting point is 280 °C. Besides, the IC50 in data set [1] is 100 to 500 nM.

The compound `COc1cccc2c1N=C(/C=C(\O)c1cccnc1)N1CCN=C21` [Example 1-68] yielded a melting point of 275 °C. Also, in data set [1], the IC50 is below 100 nM.

As to `Cl.O/C(=C\C1=Nc2c(F)cccc2C2=NCCN12)c1cccnc1` [Example 1-70], the melting point came out at 218 °C. In addition, the IC50 in data set [1] was below 100 nM.

In turn, `Cl.O/C(=C\C1=Nc2c(F)cccc2C2=NCCN12)c1cccnc1` [Example 1-71] gave a melting point of 303 °C. In addition, the IC50 in data set [1] was 100 to 500 nM.

For the compound `O/C(=C\C1=Nc2c(Cl)cccc2C2=NCCN12)c1cccnc1` [Example 1-72], the melting point is 210 °C (dec.). Further, the IC50 in data set [1] fell in the range of 100 to 500 nM.

Take `O/C(=C\C1=Nc2c(Br)cccc2C2=NCCN12)c1cccnc1` [Example 1-73]: the melting point was 120 °C (dec.). In data set [1], the IC50 lay within 100 to 500 nM.

In the case of `Cc1cccc2c1N=C(/C=C(\O)c1cccnc1)N1CCN=C21` [Example 1-75], the melting point was 248 °C. In addition, in data set [1], the IC50 was in the range of 100 to 500 nM.

Turning to `CC(=O)Nc1ccc(/C(O)=C/C2=Nc3c(C)cccc3C3=NCCN23)cn1` [Example 1-77], the melting point is above 285 °C. Further, the IC50 in data set [1] is below 100 nM.

For `Cc1cccc2c1N=C(/C=C(\O)c1ccc3[nH]cnc3c1)N1CCN=C21.Cl` [Example 1-79], the melting point was above 285 °C. Further, the IC50 in data set [1] was below 100 nM.

Consider `O/C(=C\C1=Nc2c(cccc2C(F)(F)F)C2=NCCN12)c1cccnc1` [Example 1-80], for which the melting point came out at 275 °C. In addition, in data set [1], the IC50 is 100 to 500 nM.

As to `O/C(=C\C1=Nc2c(CN3CCOCC3)cccc2C2=NCCN12)c1cccnc1` [Example 1-82], the melting point is 198 to 202 °C (dec.). Also, the IC50 in data set [1] was 100 to 500 nM.

In the case of `Cl.O/C(=C\C1=Nc2c(O)cccc2C2=NCCN12)c1cccnc1` [Example 1-83], the melting point was above 250 °C. For the same compound, the IC50 in data set [1] fell in the range of 100 to 500 nM.

For `O/C(=C\C1=Nc2c(OCCN3CCOCC3)cccc2C2=NCCN12)c1cccnc1` [Example 1-84], the melting point lay in the range of 195 to 196 °C. Besides, the IC50 in data set [1] was 100 to 500 nM.

The compound `CN(C)CCOc1cccc2c1N=C(/C=C(\O)c1cccnc1)N1CCN=C21` [Example 1-86] registered a melting point of 186 to 187 °C. Also, the IC50 in data set [1] lay in the range of 100 to 500 nM.

In the case of `CN(C)CCCOc1cccc2c1N=C(/C=C(\O)c1cccnc1)N1CCN=C21` [Example 1-87], the melting point is 235 °C (dec.). In addition, the IC50 in data set [1] was 100 to 500 nM.

Turning to `O/C(=C\C1=Nc2c(OCC3CC3)cccc2C2=NCCN12)c1cccnc1` [Example 1-88], the melting point was 203 °C (dec.). The IC50 in data set [1] fell in the range of 100 to 500 nM.

`CC(C)(C)OC(=O)COc1cccc2c1N=C(/C=C(\O)c1cccnc1)N1CCN=C21.Cl` [Example 1-90] returned a melting point of 222 to 223 °C. Also, the IC50 in data set [1] is below 100 nM.

On to `OCCOc1cccc2c1N=C(/C=C(\O)c1cccnc1)N1CCN=C21` [Example 1-91], for which the melting point fell in the range of 211 to 212 °C. Also, the IC50 in data set [1] was in the range of 100 to 500 nM.

As for `OCCCOc1cccc2c1N=C(/C=C(\O)c1cccnc1)N1CCN=C21` [Example 1-92], the melting point lay within 203 to 205 °C. In addition, in data set [1], the IC50 was below 100 nM.

Regarding `CC(=O)Oc1cccc2c1N=C(/C=C(\O)c1cccnc1)N1CCN=C21` [Example 1-93], the melting point is 225 to 226 °C. In data set [1], the IC50 was 100 to 500 nM.

`O/C(=C\C1=Nc2cc(N3CCOCC3)ccc2C2=NCCN12)c1cccnc1` [Example 1-94] yielded a melting point of 282 °C. Besides, in data set [1], the IC50 lay within 100 to 500 nM.

For the compound `CC(=O)Nc1ccc(/C(O)=C/C2=Nc3cc(N4CCOCC4)ccc3C3=NCCN23)cn1` [Example 1-96], the melting point is 269 °C (dec.). For the same compound, the IC50 in data set [1] was below 100 nM.

On to `O/C(=C\C1=Nc2cc(N3CCOCC3)ccc2C2=NCCN12)c1cncc(O)c1` [Example 1-98], for which the melting point was 337 °C (dec.). For the same compound, in data set [1], the IC50 is below 100 nM.

`O/C(=C\C1=Nc2cc(N3CCOCC3)ccc2C2=NCCN12)c1ccc2[nH]cnc2c1` [Example 1-100] registered a melting point of 232 °C. In addition, in data set [1], the IC50 is below 100 nM.

`CC(=O)Nc1ccc(/C(O)=C/C2=Nc3cc(N4CCCC(O)C4)ccc3C3=NCCN23)cn1.Cl` (stereo not shown) [Example 1-102]: the melting point was 238 °C (dec.). Further, the IC50 in data set [1] is 100 to 500 nM.

On to `CN1CCN(c2ccc3c(c2)N=C(/C=C(\O)c2cccnc2)N2CCN=C32)CC1.Cl` [Example 1-104], for which the melting point amounted to 288 °C. In addition, the IC50 in data set [1] is 100 to 500 nM.

`CC(=O)Nc1ccc(/C(O)=C/C2=Nc3cc(N4CCN(C)CC4)ccc3C3=NCCN23)cn1` [Example 1-105]: the melting point was 292 °C (dec.). Besides, in data set [1], the IC50 lay within 100 to 500 nM.

`CN1CCN(c2ccc3c(c2)N=C(/C=C(\O)c2ccc4[nH]cnc4c2)N2CCN=C32)CC1` [Example 1-107] returned a melting point of 207 °C. Besides, the IC50 in data set [1] is below 100 nM.

Consider `CN1CCN(c2ccc3c(c2)N=C(/C=C(\O)c2ccc4[nH]cnc4c2)N2CCN=C32)CC1.Cl` [Example 1-108], for which the melting point is above 300 °C. The IC50 in data set [1] is 100 to 500 nM.

Consider `CN(CCO)c1ccc2c(c1)N=C(/C=C(\O)c1ccc3[nH]cnc3c1)N1CCN=C21.Cl` [Example 1-110], for which the melting point is 231 °C (dec.). The IC50 in data set [1] is 100 to 500 nM.

For `O/C(=C\C1=Nc2cc(CN3CCOCC3)ccc2C2=NCCN12)c1cccnc1` [Example 1-111], the melting point was 204 °C. Moreover, the IC50 in data set [1] was in the range of 100 to 500 nM.

For `CC(=O)Nc1ccc(/C(O)=C/C2=Nc3cc(CN4CCOCC4)ccc3C3=NCCN23)cn1` [Example 1-113], the melting point was 245 °C. The IC50 in data set [1] was in the range of 100 to 500 nM.

As to `O/C(=C\C1=Nc2cc(CN3CCOCC3)ccc2C2=NCCN12)c1ccc2[nH]cnc2c1` [Example 1-115], the melting point was found to be 219 °C. Further, the IC50 in data set [1] lay in the range of 100 to 500 nM.

`O/C(=C\C1=Nc2cc(Cl)ccc2C2=NCCN12)c1cccnc1` [Example 1-116] came in with a melting point of 226 °C. Also, the IC50 in data set [1] lay within 100 to 500 nM.

Compound `Cl.O/C(=C\C1=Nc2cc(Br)ccc2C2=NCCN12)c1cccnc1` [Example 1-118] had a melting point of 233 °C. The IC50 in data set [1] fell in the range of 100 to 500 nM.

The compound `Cc1ccc2c(c1)N=C(/C=C(\O)c1cccnc1)N1CCN=C21` [Example 1-119] had a melting point of 224 °C. Moreover, the IC50 in data set [1] lay in the range of 100 to 500 nM.

Take `O/C(=C\C1=Nc2cc(C(F)(F)F)ccc2C2=NCCN12)c1cccnc1` [Example 1-121]: the melting point was 264 °C. The IC50 in data set [1] lay in the range of 500 to 2000 nM.

`Cl.O/C(=C\C1=Nc2cc(C(F)(F)F)ccc2C2=NCCN12)c1cccnc1` [Example 1-122] yielded a melting point of 321 °C. Besides, the IC50 in data set [1] was in the range of 100 to 500 nM.

As to `O/C(=C\C1=Nc2ccc(O)cc2C2=NCCN12)c1cccnc1` [Example 1-124], the melting point was 302 to 303 °C. The IC50 in data set [1] lay within 100 to 500 nM.

Values taken from US7511041B2, “Fused azole-pyrimidine derivatives” (Bayer Pharmaceuticals Corporation, priority 2002, dated 2009).
